This note sets out measurements from patent US9856221B2, “Salt of ivabradine and process for the preparation thereof” (LES LABORATOIRES SERVIER, priority 2014, dated 2018).

“And” between values parts separate entries of the source, which are not always exact repeats. Equal entries are not always repeated. Structures can show the parent of a compound that is named as a salt.

Series [1] in a line: Dissolution test (paddle apparatus, Ph. Eur. 2.9.3), release of active ingredient. It is filed as physicochemical. Particulars: for % of active ingredient released (individual units B1-B6) / % of active ingredient released, Mean: 0.01 N HCl pH~2.1, 37°C, paddle 50 rpm; for % of active ingredient released (individual units B1-B6): 500 mL; for % of active ingredient released, Mean: mean of 6 units. As for the experimental part:
Dissolution Test Operating Conditions for Dissolution Paddle dissolution apparatus described in the European pharmacopoeia (2.9.3) Dissolution medium: 0.01 N hydrochloric acid (pH˜2.1) degassed Temperature of the medium: 37° C.±0.5° C. Volume of the medium: 500 mL±5 mL Speed of rotation of the blades: 50 rpm±2 rpm Standard sampling time: 0, 15, 30 and 45 min Added sampling times: 1, 2, 4, 6, 8, 12 and 16 h Volume removed: 1 mL Replacement of the volume removed: no Number of units tested: 6 Number of units per flask: 1

The nature of series [2]: In vitro release of ivabradine hydrochloride (immediate-release formulation). It is filed as physicochemical.

Regarding `COc1cc2c(cc1OC)CC(=O)N(CCCN(C)C[C@H]1Cc3cc(OC)c(OC)cc31)CC2` [ivabradine hemipamoate], the ivabradine hemipamoate released in series [1] (after approximately 6 hours, in vitro dissolution test) was 80%. The Derivative (of % of active ingredient released over time) is 0 %/min in series [1] (time 0 hour); 0.79 %/min in series [1] (time 0.25 hour); 0.4 %/min in series [1] (time 0.5 hour); 0.26 %/min in series [1] (time 0.75 hour); 0.2 %/min in series [1] (time 1 hour); 0.23 %/min in series [1] (time 2 hour). The Derivative (of % of active ingredient released over time) in series [1] (time 4 hour) came to 0.25 %/min; in series [1] (time 6 hour), 0.15 %/min; in series [1] (time 8 hour) it was 0.07 %/min; in series [1] (time 12 hour) it was 0.03 %/min; in series [1] (time 16 hour), 0.01 %/min. For the same compound, the “% of active ingredient released (individual units B1-B6)” value is 0% in series [1] (time 0 hour); 12% (3×) and 11% (2×) and 13% in series [1] (time 0.25 hour); 18% (2×) and 17% (2×) and 20% and 16% in series [1] (time 0.5 hour); 21% (2×) and 22% (2×) and 24% and 20% in series [1] (time 0.75 hour); 24% and 25% and 26% and 28% and 23% (2×) in series [1] (time 1 hour); 38% (2×) and 40% (2×) and 43% and 34% in series [1] (time 2 hour). Further, the “% of active ingredient released (individual units B1-B6)” value in series [1] (time 4 hour) is 64% and 70% (2×) and 71% and 72% and 66%; in series [1] (time 6 hour), 81% and 89% and 88% and 85% and 91% and 84%; in series [1] (time 8 hour) it was 89% and 99% and 96% and 94% and 101% and 93%; in series [1] (time 12 hour), 96% and 109% and 102% and 103% and 110% and 101%; in series [1] (time 16 hour), 98% and 114% (2×) and 104% and 106% and 105%. Also, the “% of active ingredient released, Mean” value in series [1] (time 0 hour) amounted to 0%; in series [1] (time 0.25 hour), 12%; in series [1] (time 0.5 hour) it was 18%; in series [1] (time 0.75 hour) it was 22%; in series [1] (time 1 hour) it was 25%; in series [1] (time 2 hour), 39%. Besides, the “% of active ingredient released, Mean” value is reported as 69% in series [1] (time 4 hour); 86% in series [1] (time 6 hour); 95% in series [1] (time 8 hour); 104% in series [1] (time 12 hour); 107% in series [1] (time 16 hour).
Consider `COc1cc2c(cc1OC)CC(=O)N(CCCN(C)C[C@H]1Cc3cc(OC)c(OC)cc31)CC2` [ivabradine hydrochloride, 3-{3-[{[(7S)-3,4-dimethoxybicyclo[4.2.0]octa-1,3,5-trien-7-yl]methyl}-(methyl)amino]propyl}-7,8-dimethoxy-1,3,4,5-tetrahydro-2H-3-benzazepin-2-one], for which the “time in which all the salt is released in vitro” value in series [2] stood at 15 min.
